What was measured:
[1] = test system: HCV genotype 1b replicon cell line (APC144; Huh7 cell background); assay: HCV Genotype 1b Replicon Assay (Renilla luciferase readout); type: cell-based; details: Hepatitis C virus, Huh-7; read-out: Genotype 1b (pEC50 class, HCV genotype 1b replicon assay) (converted)
Excerpt: Assay 1: HCV Genotype 1b Replicon Assay
The HCV genotype 1b replicon cell line was obtained from Apath LLC (Brooklyn, N.Y.) (APC144; Huh7 cell background). This subgenomic replicon contains the N-terminus of the HCV core protein fused to the neomycin-resistance selectable marker. The EMCV IRES lies downstream and drives expression of humanized Renilla luciferase fused to the non-structural proteins NS3-NS5B. This cell line was used to determine compound potency using the luciferase activity readout as a measurement of compound inhibition of replicon levels.
Cells were grown at 37° C. in a 5% CO2 humidified incubator in DMEM (Invitrogen) with 10% FBS (HyClone), 1×NEAA (Invitrogen), 1× Pen-Strep (Invitrogen), and 500 μg/mL G418 (Invitrogen). On day 1 of the assay, cells were plated at 10,000 cells/well in white 96-well tissue culture plates (Costar) in 200 μL media lacking G418. Four hours later, once the cells have adhered, the media was removed and replaced with media (no G418) containing dose-responses of test compounds. Compounds were initially diluted in DMSO and then diluted another 200× in media to bring the final DMSO concentration down to 0.5%. The cells were incubated with test compounds for 48 hours. At the end of the incubation period, media and compound were removed from the plates and the luciferase activity was determined using Promega Renilla-Glo reagents.
To analyze the data, the luciferase activity was plotted vs. the compound concentration, and EC50 values were determined from a 4-parameter robust fit model with the GraphPad Prism software package (GraphPad Software, Inc., San Diego, Calif.). Results are expressed as the negative decadic logarithm of the EC50 value, pEC50.
Test compounds having a higher pEC50 value in this assay show greater inhibition of HCV genotype 1b replication.

[2] = test system: HCV genotype 1a replicon cell line (APC89; Huh7.5 cell background); assay: HCV Genotype 1a Replicon Assay (NS3-specific protease activity readout); type: cell-based; details: Hepatitis C virus, 72 hour incubation, read-out: Genotype 1a (pEC50 class, HCV genotype 1a replicon assay) (converted)
How it was run: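 Genotype 1a subgenomic replicon cells (APC89, Huh7.5) were treated with compound dose-responses in G418-free medium, 0.5% DMSO final, for 48 or 72 hours at 37° C. Lysate NS3/4a protease activity measured with 15 μM FRET substrate, 20 min at 37° C (ex 340/em 509 nm); EC50 by 4-parameter fit.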

Row | Compound | EC50 [1] [nM] | EC50 [2] [nM]
1 | COC(=O)N[C@H](C(=O)N1CCC[C@H]1c1nc(-c2ccc(-c3cc(F)c(NC(=O)c4ccc(N5CCN(C(=O)[C@]6(C)CCCN6C(=O)OC)C[C@H]5C)nc4)cc3OC(F)(F)F)cc2)c[nH]1)C(C)C [Example 27-42] | < 0.1 | < 0.1
2 | COC(=O)N[C@H](C(=O)N1CCC[C@H]1c1nc(-c2ccc(-c3cc(F)c(NC(=O)c4ccc(N5CCN(C(=O)[C@]6(C)CCCN6C(=O)NC(C)C)C[C@H]5C)nc4)cc3OC(F)(F)F)cc2)c[nH]1)C(C)C [Example 27-43] | < 0.1 | < 0.1
3 | COC(=O)N[C@H](C(=O)N1CCC[C@H]1c1nc(-c2ccc(-c3cc(F)c(NC(=O)c4ccc(N5CCN(C(=O)[C@]6(C)CCCN6C(=O)[C@@H](N)C(C)C)C[C@H]5C)nc4)cc3OC(F)(F)F)cc2)c[nH]1)C(C)C [Example 27-44] | < 0.1 | < 0.1
4 | COCCNC(=O)N1CCC[C@@]1(C)C(=O)N1CCN(c2ccc(C(=O)Nc3cc(OC(F)(F)F)c(-c4ccc(-c5c[nH]c([C@@H]6CCCN6C(=O)[C@@H](NC(=O)OC)C(C)C)n5)cc4)cc3F)cn2)[C@H](C)C1 [Example 27-45] | < 0.1 | < 0.1
5 | COCC(=O)N1CCC[C@@]1(C)C(=O)N1CCN(c2ccc(C(=O)Nc3cc(OC(F)(F)F)c(-c4ccc(-c5c[nH]c([C@@H]6CCCN6C(=O)[C@@H](NC(=O)OC)C(C)C)n5)cc4)cc3F)cn2)[C@H](C)C1 [Example 27-46] | < 0.1 | < 0.1
6 | CNC(=O)N1CCC[C@@]1(C)C(=O)N1CCN(c2ccc(C(=O)Nc3cc(OC(F)(F)F)c(-c4ccc(-c5c[nH]c([C@@H]6CCCN6C(=O)[C@@H](NC(=O)OC)C(C)C)n5)cc4)cc3F)cn2)[C@H](C)C1 [Example 27-47] | < 0.1 | < 0.1
7 | COC(=O)N[C@H](C(=O)N1CCC[C@H]1c1nc(-c2ccc(-c3cc(F)c(NC(=O)c4ccc(N5CCN(C(=O)[C@]6(C)CCCN6C(=O)CO)C[C@H]5C)nc4)cc3OC(F)(F)F)cc2)c[nH]1)C(C)C [Example 27-48] | < 0.1 | < 0.1
8 | COC(=O)N[C@H](C(=O)N1CCC[C@H]1c1nc(-c2ccc(-c3cc(F)c(NC(=O)c4ccc(N5CCN(C(=O)[C@]6(C)CCCN6C(=O)CN(C)C)C[C@H]5C)nc4)cc3OC(F)(F)F)cc2)c[nH]1)C(C)C [Example 27-50] | < 0.1 | < 0.1
9 | CNC(=O)N1CCN(c2ccc(C(=O)Nc3cc(OC(F)(F)F)c(-c4ccc(-c5c[nH]c([C@@H]6CCCN6C(=O)[C@@H](NC(=O)OC)C(C)C)n5)cc4)cc3Cl)cn2)[C@H](C)C1 [Example 27-68] | < 0.1 | < 0.1
10 | COC(=O)N[C@H](C(=O)N1CCC[C@H]1c1nc(-c2ccc(-c3cc(Cl)c(NC(=O)c4ccc(N5CCN(C(=O)[C@]6(C)CCCN6C(=O)CN(C)C)C[C@H]5C)nc4)cc3OC(F)(F)F)cc2)c[nH]1)C(C)C [Example 27-72] | < 0.1 | < 0.1
11 | CNC(=O)N1CCC[C@@]1(C)C(=O)N1CCN(c2ccc(C(=O)Nc3cc(OC(F)(F)F)c(-c4ccc(-c5c[nH]c([C@@H]6CCCN6C(=O)[C@@H](NC(=O)OC)C(C)C)n5)cc4)cc3Cl)cn2)[C@H](C)C1 [Example 27-73] | < 0.1 | < 0.1
12 | COC(=O)N[C@H](C(=O)N1CCC[C@H]1c1nc(-c2ccc(-c3ccc(NC(=O)c4ccc(N5CCN(C(=O)c6c[nH]cn6)C[C@H]5C)nc4)cc3OC(F)(F)F)cc2)c[nH]1)C(C)C [Example 27] | < 0.1 | < 0.1
13 | CNC(=O)N1C[C@@H](C)N(c2ccc(C(=O)Nc3cc(OC(F)(F)F)c(-c4ccc(-c5c[nH]c([C@@H]6CCCN6C(=O)[C@@H](NC(=O)OC)C(C)C)n5)cc4)cc3Cl)cn2)C[C@@H]1C [Example 28-36] | < 0.1 | < 0.1
14 | COC(=O)N[C@H](C(=O)N1CCC[C@H]1c1nc(-c2ccc(-c3cc(Cl)c(NC(=O)c4ccc(N5C[C@H](C)N(C(=O)c6c[nH]cn6)C[C@H]5C)nc4)cc3OC(F)(F)F)cc2)c[nH]1)C(C)C [Example 28-39] | < 0.1 | < 0.1
15 | COC(=O)N[C@H](C(=O)N1CCC[C@H]1c1nc(-c2ccc(-c3ccc(NC(=O)c4ccc(N5CCN(C(=O)C6CC6)C[C@H]5C)nc4)cc3OC(F)(F)F)cc2)c[nH]1)C(C)C [Example 28] | < 0.1 | 0.1 to 1
16 | CNC(=O)N1C[C@@H](C)N(c2ccc(C(=O)Nc3ccc(-c4ccc(-c5c[nH]c([C@@H]6CCCN6C(=O)[C@@H](NC(=O)OC)C(C)C)n5)cc4)c(OC(F)(F)F)c3)cn2)C[C@@H]1C [Example 29, ((S)-1-{(S)-2-[4-(4′-{[6-((2R,5S)-2,5-Dimethyl-4-methylcarbamoyl-piperazin-1-yl)-pyridine-3-carbonyl]-amino}-2′-trifluoromethoxy-biphenyl-4-yl)-1H-imidazol-2-yl]-pyrrolidine-1-carbonyl}-2-methyl-propyl)-carbamic acid methyl ester] | < 0.1 | < 0.1
17 | COC(=O)N[C@H](C(=O)N1CCC[C@H]1c1nc(-c2ccc(-c3ccc(NC(=O)c4ccc(N5C[C@H](C)N(C(=O)C6CC6)C[C@H]5C)nc4)cc3OC(F)(F)F)cc2)c[nH]1)C(C)C [Example 30] | < 0.1 | < 0.1
18 | COC(=O)N[C@H](C(=O)N1CCC[C@H]1c1nc(-c2ccc(-c3ccc(NC(=O)c4ccc(N5C[C@H](C)N(C(=O)c6c[nH]cn6)C[C@H]5C)nc4)cc3OC(F)(F)F)cc2)c[nH]1)C(C)C [Example 32] | < 0.1 | < 0.1
19 | COC(=O)N[C@H](C(=O)N1CCC[C@H]1c1nc(-c2ccc(-c3ccc(NC(=O)c4ccc(N5CCN(C(=O)[C@H]6CC6(C)C)C[C@H]5C)nc4)cc3C(F)(F)F)cc2)c[nH]1)C(C)C [Example 34, [(S)-1-((S)-2-{5-[4′-({6-[(R)-4-((S)-2,2-Dimethyl-cyclopropanecarbonyl)-2-methyl-piperazin-1-yl]-pyridine-3-carbonyl}-amino)-2′-trifluoromethyl-biphenyl-4-yl]-1H-imidazol-2-yl}-pyrrolidine-1-carbonyl)-2-methyl-propyl]-carbamic acid methyl ester] | < 0.1 | < 0.1
20 | COC(=O)N[C@H](C(=O)N1CCC[C@H]1c1nc(-c2ccc(-c3ccc(NC(=O)c4ccc(N5CCN(C(=O)C6CC6)C[C@H]5C)nc4)cc3C(F)(F)F)cc2)c[nH]1)C(C)C [Example 35] | < 0.1 | 0.1 to 1
21 | CNC(=O)N1CCN(c2ccc(C(=O)Nc3ccc(-c4ccc(-c5c[nH]c([C@@H]6CCCN6C(=O)[C@@H](NC(=O)OC)C(C)C)n5)cc4)c(C(F)(F)F)c3)cn2)[C@H](C)C1 [Example 36] | < 0.1 | 0.1 to 1
22 | COC(=O)N[C@H](C(=O)N1CCC[C@H]1c1nc(-c2ccc(-c3ccc(NC(=O)c4ccc(N5CCN(C(=O)c6c[nH]cn6)C[C@H]5C)nc4)cc3C(F)(F)F)cc2)c[nH]1)C(C)C [Example 37] | < 0.1 | 0.1 to 1
23 | COC(=O)N[C@H](C(=O)N1CCC[C@H]1c1nc(-c2ccc(-c3ccc(NC(=O)c4ccc(N5C[C@H](C)N(C(=O)[C@H]6CC6(C)C)C[C@H]5C)nc4)cc3C)c(C)c2)c[nH]1)C(C)C [Example 39, [(S)-1-((S)-2-{4-[4′-({6-[(2R,5S)-4-((S)-2,2-Dimethyl-cyclopropanecarbonyl)-2,5-dimethyl-piperazin-1-yl]-pyridine-3-carbonyl}-amino)-2,2′-dimethyl-biphenyl-4-yl]-1H-imidazol-2-yl}-pyrrolidine-1-carbonyl)-2-methyl-propyl]-carbamic acid methyl ester] | < 0.1 | < 0.1
24 | COC(=O)N[C@H](C(=O)N1CCC[C@H]1c1nc(-c2ccc(-c3ccc(NC(=O)c4ccc(N5C[C@H](C)N(C(=O)[C@]6(C)CCCN6C(=O)[C@@H](NC(=O)OC)C(C)C)C[C@H]5C)nc4)cc3C)c(C)c2)c[nH]1)C(C)C [Example 40] | < 0.1 | 0.1 to 1
25 | COC(=O)N[C@H](C(=O)N1CCC[C@H]1c1nc(-c2ccc(-c3c(F)cc(NC(=O)c4ccc(N5CCN(C(=O)[C@H]6CC6(C)C)C[C@H]5C)nc4)cc3F)cc2)c[nH]1)C(C)C [Example 41, [(S)-1-((S)-2-{5-[4′-({6-[(R)-4-((S)-2,2-Dimethyl-cyclopropanecarbonyl)-2-methyl-piperazin-1-yl]-pyridine-3-carbonyl}-amino)-2′,6′-difluoro-biphenyl-4-yl]-1H-imidazol-2-yl}-pyrrolidine-1-carbonyl)-2-methyl-propyl]-carbamic acid methyl ester] | < 0.1 | < 0.1
26 | COC(=O)N[C@H](C(=O)N1CCC[C@H]1c1nc(-c2ccc(-c3c(F)cc(NC(=O)c4ccc(N5CCN(C(=O)C6CC6)C[C@H]5C)nc4)cc3F)cc2)c[nH]1)C(C)C [Example 42] | < 0.1 | 0.1 to 1

Source: patent US8921372B2, “Inhibitors of hepatitis C virus” (Theravance Biopharma R&D IP, LLC, priority 2010, dated 2014)
